One test concerns H1299. The test is described as follows: Proliferation assay (MTS), lung cancer cell line. In kind it is cell-based. The conditions noted are these: Homo sapiens, NCI-H1299, 72 h, determined at day 3. The procedure: (§1) Proliferation of Glioma cell lines: U87 MG and C6 under the treatment of DBZIM was examined using 3-(4,5-dimethylthiazol-2-yl)-5-(3-carboxymethoxyphenyl)-2-(4-sulfophenyl)-2H-tetrazolium (MTS) based proliferation assay kit (Promega, Wis., USA). MTS reagent was added to the control and treated cells (after 48 hr) directly and the absorbance signal was read at 490 nm using a Tecan Safire II plate reader.
(§2) The IC50 value (determined at day 3) was 50 μM for H1299 (lung cancer); 50 μM for MCF-7 (breast cancer), and 40 μM for AGS gastric cancer at day 3 (Table 3).

The test system of the next test is HLE cells. As to the kind of experiment: DNA content analysis (cell cycle) in HLE cells. In kind it is cell-based, human. The conditions noted are these: 0, 1, 3 mM, 24 hr. The procedure:
FIG. 21. DBZIM inhibited cell proliferation and disrupted cell cycle in HLE cells (A). DBZIM inhibited HCC cell proliferation. HLE cells were seeded at a density of 5000 cells/well in 96-well plate, and cultured for 18-24 h in 10% […] DMEM before the addition of various compounds (0-1.25 mM) in 10% FBS DMEM for 48 h of proliferation before assaying. Cell count was calculated based on Hoechst dye staining and BrdU incorporation was based on the total fluorescence intensity of antibody staining. (B). DBZIM arrested HCC cells at G0/G1 phase. HLE cells were incubated with DBZIM (0, 1, 3 mM) for 24 hr before fixation and DAPI staining for DNA content (2N vs. 4N) determination.
HLE cells grown in a 96-well plate were treated with compounds in 6 replicates for 24 hr. Cells were then fixed with 4% paraformaldehyde and stained with DAPI. Cells were analyzed and imaged on ArrayScan VTI HCS reader (Thermal Scientific, PA, USA) and DNA content (2N vs. 4N) was determined based on DAPI staining.

The next test concerns caspase-3/9 and PARP. As to the kind of experiment: Western blot of caspase-3, caspase-9 and PARP in MCF-7 and AGS. Type of test: cell-based, human. To be noted: 50 μM. The procedure: FIG. 31. DBZIM induces cleavage of caspase-3, caspase-9 and PARP as indication of apoptosis. Western blot analysis for the effect of DBZIM, on the cleavage of caspase-3, Caspase-9 and PARP A) in p53 wild type gastric cancer cell AGS and B) in p53 wild type breast cancer cell line MCF-7. Western blot analysis conducted on cells after 72 h exposure to 50 μM of DBZIM.
To determine whether cells undergo apoptosis, Western blotting was first performed for a caspase-3/9 and PARP activation with proteins from MCF-7 and AGS treated with DBZIM. […] Similarly we observed a DBZIM-induced elevation of caspase 3/7 in C6 (by 3 folds at 2.0 mM) and in U87 MG (by 17 folds at 2 mM) (FIGS. 30B and 30D).

A further test relates to AGS. As to the kind of experiment: Proliferation assay (MTS), gastric cancer cell line. In kind it is cell-based. The conditions noted are these: Homo sapiens, 72 h, day 3. The procedure: as §1, §2
In test [1] the test system is cytochrome C in HLE cells. As to the kind of experiment: Western blot of cytochrome c release from mitochondria to cytosol. In kind it is cell-based, human. To be noted: 1.5 mM, 24 hr. The procedure: FIG. 23. (A). […] HLE cells were grown in a T75 flask and treated with DBZIM for 24 hr. The cells were then lysed and cytoplasmic protein was collected for assaying caspase 8, 9 and 3 using kits from Biovision. The data was normalized against the vehicle control. (B). […] HLE cells were treated by DBZIM of 1.5 mM for 24 hr. Cytosolic and mitochondria protein fractions were collected using a kit from Biovision. 15 μg of each protein was resolved in 4-12% gradient PAGE-SDS gel. The target proteins were recognized by antibody of cytochrome C, and visualized by the ECL method. […]
Protein extracts were prepared by lysing cell pellet in RIPA buffer (Pierce, Ill., USA) for total protein extract, or in NE-PER reagent from Pierce (Pierce, Ill., USA) for nuclear and cytoplasmic fractions, or in a Kit from BioVision (CA, USA) for mitochondria and cytosol fractions. Protein content was quantified using BCA Kit (Pierce, Ill., USA). […] The membrane was then probed with primary antibodies against Bcl-XL, Bak, Bcl-2α, Bax (Lab Vision Corp., CA, USA), survivin, xIAP, cIAP (R&D systems Inc., MN, USA), c-Jun, c-Fos, JunB, JunD, Fra-1, Fra-2 (Santa Cruz Biotechnology, CA, USA) respectively, and detected by horseradish peroxidase-conjugated secondary antibody (Santa Cruz Biotechnology, CA, USA). Protein bands were recorded on X-ray film by reacting with ECL chemiluminescence reagents (Amersham Biosciences, NJ, USA). […]
A general note: A western blot detects proteins with antibodies after separation by electrophoresis.

Another test concerns AIF. As to the kind of experiment: AIF translocation (Western blot and HCS). Type of test: cell-based, human. To be noted: 24 hr. The procedure: FIG. 26. DBZIM induced cytoplasm-to-nucleus translocation of AIF. (A). DBZIM translocated AIF from cytoplasm to nucleus. HepG2 cells were treated by DBZIM for 24 hr. Cytoplasmic and nuclear proteins were fractionated using a kit from Pierce. 15 μg of proteins were resolved in 4-12% gradient PAGE-SDS gel. The target proteins were recognized by the antibody of AIF, and visualized by the ECL method. The membrane was stripped and re-probed for α-tubulin as the loading control for cytoplasmic fraction and Tata binding protein TBP for nuclear protein. (B). HLE cells were grown in 96-well plate and treated by DBZIM for 24 hr. The cells were then fixed and stained by antibody of AIF. The images were acquired and analyzed using ArrayScan VTI HCS reader (Thermal Scientific, PA, USA) and Target Activation BioApplication software. The arrows indicate the cytoplasmic and the nuclear location of the AIF staining in the control and the DBZIM, respectively. (C). Quantification of AIF staining in different subcellular compartments. […]
HLE cells cultured in 96-well plate were treated with DBZIM for 24 hr before staining and imaging. […] The cells were imaged and analyzed on ArrayScan VTI HCS reader (Thermal Scientific, PA, USA). Fluorescence intensity in the cytoplasmic and nuclear area was plotted for indication of cytoplasm to nucleus translocation. […]

Broadly, the IC50 is the concentration that gives 50% inhibition. High values mean a need for much substance, low ones inhibition by little substance. Take `[Br-].c1ccc(Cn2cc[n+](Cc3ccccc3)c2)cc1` [DBZIM, 1,3-bisbenzylimidazolium bromide]: the IC50 in the test on H1299 amounted to 50 µM; in the test on AGS, 40 µM. Further, the cell cycle arrest result in the test on HLE cells is recorded as “arrested HLE cells in the G0/G1 phase”. Moreover, the “caspase-3/9 and PARP activation” value with caspase-3/9 and PARP is “time-dependently increased caspase-3/9 and PARP activity”. In addition, in test [1], the “release of cytochrome C from the mitochondria to the cytosol” value was “minimal release”. In the test with AIF, the AIF translocation entry is “induce the translocation of AIF to the nucleus”.

Values taken from patent US9072729B2, “Method for treating fibrosis and cancer with imidazolium and imidazolinium compounds” (Agency for Science, Technology and Research, priority 2008, dated 2015).
